Data as given in patent US20240270809A1, “ORAL GLP RECEPTOR AGONISTS” (priority 2020, published 2024).
Positions of bridges follow the written chain, without caps; N, C: chain ends. Non-standard residues stand in square brackets, D forms with d. Residues, ends and D or L forms follow the SMILES beside them. *: point of attachment. Malonyl(2,2-Me2,histaminyl) = CC(C)(C(=O)NCCc1cnc[nH]1)C(=O)*; Ala(1H-tetrazol-5-yl) = N[C@@H](Cc1nnn[nH]1)C(=O)O; αMeL = CC(C)C[C@](C)(N)C(=O)O; Nle = CCCC[C@H](N)C(=O)O; Aib = CC(C)(N)C(=O)O

What was measured:
human GLP2 receptor = target: T1, human GLP2 receptor (Homo sapiens, UniProt O95838); experiment: cAMP accumulation assay, functional agonism of human GLP2 receptor; type: cell-based; conditions: HEK cells infected with human GLP2 receptor BacMam virus, HTRF cAMP; for Emax: HEK293, read-out: Human GLP-2R agonist cAMP Emax; for EC50: read-out: Human GLP-2R agonist cAMP pEC50 (converted)
T1 construct: expressed in transfected cells; host or cells: HEK cells, BacMam virus transduction
T1 sequence (O95838 1-553): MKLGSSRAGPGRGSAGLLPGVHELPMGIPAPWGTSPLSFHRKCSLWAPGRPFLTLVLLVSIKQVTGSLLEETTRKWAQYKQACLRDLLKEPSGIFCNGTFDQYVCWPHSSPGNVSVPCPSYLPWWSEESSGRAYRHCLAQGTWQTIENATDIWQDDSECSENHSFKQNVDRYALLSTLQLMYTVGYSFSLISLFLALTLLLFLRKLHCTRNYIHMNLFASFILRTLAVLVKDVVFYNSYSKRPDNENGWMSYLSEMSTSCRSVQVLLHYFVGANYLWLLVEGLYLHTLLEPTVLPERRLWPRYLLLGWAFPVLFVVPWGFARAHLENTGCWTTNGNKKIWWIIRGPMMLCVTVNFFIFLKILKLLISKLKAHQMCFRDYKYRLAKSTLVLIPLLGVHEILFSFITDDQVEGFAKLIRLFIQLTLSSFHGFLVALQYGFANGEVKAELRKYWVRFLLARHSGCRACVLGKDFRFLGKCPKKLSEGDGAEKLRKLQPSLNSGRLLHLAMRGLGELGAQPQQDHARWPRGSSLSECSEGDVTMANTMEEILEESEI
Summary of the method: (§1)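 cAMP read by HTRF detection reagents in lysis buffer following 45 min agonist exposure at 37 °C. Cells: frozen HEK transduced for 24 h with GLP1 or GLP2 receptor BacMam, suspended in HBSS plus 0.5 mM IBMX.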

[1] = Stability of peptides in Fasted-State Simulated Gastric Fluid (FaSSGF); type: in vitro ADME; conditions: FaSSGF with 0.1 mg/ml pepsin; t=30 mins, 37° C., pH 1.6, 0.1 mg/ml pepsin
Protocol: Stability of peptides was tested in Fasted-State Simulated gastric Fluid (FaSSGF) prepared according to manufacturer's protocol (Biorelevant, art. no. FFF01). […] FaSSGF was pre-incubated for 15 min at 37° C. and spiked with test and reference item working solutions. Experiments were conducted in duplicate in a non-serial manner. The total incubation volume per replicate was 150 μl. […] All samples and calibration standards (prepared in FaSSGF) were precipitated by addition of 300 μl precipitant (ACN / 2% acetic acid / 0.2% HFBA, (precipitation regent, PR)) containing internal standards (ISTD) to 150 μl sample. After incubation for 1 h at room temperature all samples were centrifuged for 10 min at 2,200×g (room temperature).

human GLP1 receptor = target: T2, human GLP1 receptor (Homo sapiens, UniProt P43220); experiment: cAMP accumulation assay, functional agonism of human GLP1 receptor; type: cell-based; conditions: HEK cells infected with human GLP1 receptor BacMam virus, HTRF cAMP; for Emax: HEK293, read-out: Human GLP-1R agonist cAMP Emax; for EC50: read-out: Human GLP-1R agonist cAMP pEC50 (converted)
T2 construct: expressed in transfected cells; host or cells: HEK cells, BacMam virus transduction
T2 sequence (P43220 24-463): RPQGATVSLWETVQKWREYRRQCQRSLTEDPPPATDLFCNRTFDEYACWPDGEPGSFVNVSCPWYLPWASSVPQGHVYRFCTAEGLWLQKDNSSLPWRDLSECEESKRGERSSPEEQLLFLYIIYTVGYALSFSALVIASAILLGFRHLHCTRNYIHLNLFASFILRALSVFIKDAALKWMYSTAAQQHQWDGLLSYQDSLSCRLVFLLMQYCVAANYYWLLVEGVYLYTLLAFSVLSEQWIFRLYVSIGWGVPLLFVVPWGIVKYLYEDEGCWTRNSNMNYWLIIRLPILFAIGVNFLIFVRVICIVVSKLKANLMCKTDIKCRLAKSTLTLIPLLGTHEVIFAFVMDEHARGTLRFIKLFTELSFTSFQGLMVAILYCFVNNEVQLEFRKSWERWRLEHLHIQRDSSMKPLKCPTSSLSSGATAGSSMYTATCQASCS
Summary of the method: as §1

mouse GLP2 receptor = target: T3, mouse GLP2 receptor (Mus musculus, UniProt Q5IXF8); experiment: cAMP accumulation assay, functional agonism of mouse GLP2 receptor; type: cell-based; conditions: HEK cells transiently transfected with mouse GLP2 receptor, HTRF cAMP; for Emax: HEK293, read-out: Mouse GLP-2R agonist cAMP Emax; for EC50: read-out: Mouse GLP-2R agonist cAMP pEC50 (converted)
T3 construct: expressed in transfected cells; host or cells: HEK cells, transient transfection with GeneJuice
T3 sequence (Q5IXF8 1-512): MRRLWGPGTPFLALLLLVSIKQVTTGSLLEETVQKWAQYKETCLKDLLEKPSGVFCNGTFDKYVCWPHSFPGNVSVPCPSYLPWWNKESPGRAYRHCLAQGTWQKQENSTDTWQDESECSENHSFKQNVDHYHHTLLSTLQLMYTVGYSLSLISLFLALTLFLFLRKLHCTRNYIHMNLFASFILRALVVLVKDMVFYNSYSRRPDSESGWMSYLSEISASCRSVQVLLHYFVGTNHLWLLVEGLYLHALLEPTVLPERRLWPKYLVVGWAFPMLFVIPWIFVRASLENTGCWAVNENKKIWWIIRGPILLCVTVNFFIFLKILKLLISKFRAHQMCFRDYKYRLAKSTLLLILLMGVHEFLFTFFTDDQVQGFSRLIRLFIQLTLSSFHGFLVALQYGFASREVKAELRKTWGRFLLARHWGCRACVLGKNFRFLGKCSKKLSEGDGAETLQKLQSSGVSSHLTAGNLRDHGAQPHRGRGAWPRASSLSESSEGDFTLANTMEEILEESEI
Summary of the method: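 pEC50 values come from four-parameter fits of HTRF cAMP signal, read after lysis and 1 h RT incubation. Compounds were incubated 45 min at 37 °C with previously frozen, transiently transfected HEK cells (8000/well) in HBSS containing 0.5 mM IBMX.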

[2] = Stability of peptides in Fasted-State Simulated Intestinal Fluid (FaSSIF); type: in vitro ADME; conditions: FaSSIF with 10 mg/ml pancreatin, 37° C.; for remaining at 0.5 h: t=30 mins, pH 6.5, 10 mg/ml pancreatin
[3] = Stability of peptides in rat intestinal fluid (ratIF); conditions: Sprague Dawley, undiluted rat small intestinal fluid (ratIF)
Protocol: Peptides were tested for in vitro stability in native intestinal fluid obtained from the rat small intestine. Rat Sprague Dawley Small Intestinal Fluid (ratIF) (from Biotrend art. no. RSD-SIF-MI-30ML, undiluted) was preincubated for 15 min at 37° C. and spiked with test and reference item working solutions. Experiments were conducted in duplicate in a non-serial manner. The total incubation volume per replicate was 150 μl. […] All samples and calibration standards (prepared in ratIF) were precipitated by addition of 300 μl precipitant (ACN / 2% acetic acid / 0.2% HFBA, (precipitation regent, PR)) containing internal standards (ISTD) to 150 μl sample. After incubation for 1 h at room temperature all samples were centrifuged for 10 min at 2,200×g (room temperature).

Emax (human GLP2 receptor) [%]	remaining at 0.5 h [1] [%]	Emax (human GLP1 receptor) [%]	Emax (mouse GLP2 receptor) [%]	remaining at 0.5 h [2] [%]	EC50 (human GLP2 receptor) [pM]	remaining at 0.5 h [3] [%]	EC50 (human GLP1 receptor) [pM]	EC50 (mouse GLP2 receptor) [pM]	remaining at 0.25 h [3] [%]	remaining at 0.25 h ([2]; FaSSIF pH 6.5 with 10 mg/ml pancreatin, t = 15 mins) [%]	Compound
104	100	96.7	101	51.1							CCCC[C@H](NC(=O)[C@H](CCC(=O)O)NC(=O)[C@@H]1CC(=O)NCCCC[C@H](NC(=O)[C@H](CC(=O)O)NC(=O)C(C)(C)NC(=O)[C@@H](N)Cc2c[nH]cn2)C(=O)N[C@@H](CO)C(=O)N[C@@H](Cc2ccccc2)C(=O)N[C@@H](CO)C(=O)N1)C(=O)N[C@H](Cc1ccccc1)C(=O)N[C@H](C(=O)N[C@@](C)(CC(C)C)C(=O)N[C@@H](CC(C)C)C(=O)N[C@@H](CC(=O)O)C(=O)N[C@H]1CCC(=O)NCCCC[C@@H](C(=O)N[C@@H](CC(=O)O)C(=O)N[C@@H](Cc2ccccc2)C(=O)N[C@H](C(=O)N[C@H]2CCC(=O)NCCCC[C@@H](C(=O)N[C@H](C(=O)N[C@@H](CCCCN)C(=O)N3CCC[C@H]3C(N)=O)[C@@H](C)O)NC(=O)[C@H]([C@@H](C)CC)NC(=O)[C@H](CC(C)C)NC(=O)[C@H](Cc3c[nH]c4ccccc34)NC2=O)[C@@H](C)CC)NC(=O)[C@H](C)NC(=O)[C@H](C)NC(=O)[C@H](CCCCN)NC1=O)[C@@H](C)O [Example 30] (H-H[Aib]DKSFSDE[Nle][dF]T[αMeL]LDEKAAKDFIEWLIKTKP-NH2; lactam 4-8, 16-20, 24-28; N-terminus and C-terminus assumed)
105	100	88.8	99	61.3	12.6	33.4	501	3160			CCCC[C@@H]1NC(=O)[C@H](CCC(=O)O)NC(=O)[C@@H](NC(=O)[C@H](CO)NC(=O)[C@H](Cc2ccccc2)NC(=O)[C@H](CO)NC(=O)[C@@H](C)NC(=O)[C@H](Cc2nn[nH]n2)NC(=O)C(C)(C)C(=O)NCCc2c[nH]cn2)CCCCNC(=O)C[C@@H](C(=O)N[C@H](C(=O)N[C@@H](CC(C)C)C(=O)N[C@@H](CC(=O)O)C(=O)N[C@H]2CCC(=O)NCCCC[C@@H](C(=O)N[C@@H](CC(=O)O)C(=O)N[C@@H](Cc3ccccc3)C(=O)N[C@H](C(=O)N[C@H]3CCCCNC(=O)C[C@@H](C(=O)N[C@H](C(=O)N[C@H]4CCC(=O)NCCCC[C@@H](C(N)=O)NC(=O)[C@H]([C@@H](C)O)NC(=O)[C@H]([C@@H](C)CC)NC4=O)[C@@H](C)O)NC(=O)[C@H]([C@@H](C)CC)NC(=O)[C@H](CC(C)C)NC(=O)[C@H](Cc4c[nH]c5ccccc45)NC3=O)[C@@H](C)CC)NC(=O)[C@H](C)NC(=O)[C@H](C)NC(=O)[C@H](CCCCN)NC2=O)[C@@H](C)CC)NC(=O)[C@@H](Cc2ccccc2)NC1=O [Example 38] ({Malonyl(2,2-Me2,histaminyl)}-[Ala(1H-tetrazol-5-yl)][dA]SFSKE[Nle][dF]DILDEKAAKDFIKWLIDTEITK-NH2; lactam 6-10, 14-18, 22-26, 28-31 (inferred); C-terminus assumed)
104	100	96.5		95.3	50.1	62.4	200				CCCC[C@H](NC(=O)[C@H](CCC(=O)O)NC(=O)[C@@H]1CC(=O)NCCCC[C@H](NC(=O)[C@H](Cc2nn[nH]n2)NC(=O)C(C)(C)C(=O)NCCc2c[nH]cn2)C(=O)N[C@@H](CO)C(=O)N[C@@H](Cc2ccccc2)C(=O)N[C@@H](CO)C(=O)N1)C(=O)N[C@H](Cc1ccccc1)C(=O)N[C@H](C(=O)N[C@@](C)(CC(C)C)C(=O)N[C@@H](CC(C)C)C(=O)N[C@@H](CC(=O)O)C(=O)N[C@H]1CCC(=O)NCCCC[C@@H](C(=O)N[C@@H](CC(=O)O)C(=O)N[C@@H](Cc2ccccc2)C(=O)N[C@H](C(=O)N[C@H]2CCC(=O)NCCCC[C@@H](C(=O)N[C@H]3CCC(=O)NCCCC[C@@H](C(N)=O)NC(=O)[C@H]([C@@H](C)O)NC(=O)[C@H]([C@@H](C)CC)NC(=O)[C@H](CCCCN)NC3=O)NC(=O)[C@H]([C@@H](C)CC)NC(=O)[C@H](CC(C)C)NC(=O)[C@H](Cc3c[nH]c4ccccc34)NC2=O)[C@@H](C)CC)NC(=O)[C@H](C)NC(=O)[C@H](C)NC(=O)[C@H](CCCCN)NC1=O)[C@@H](C)O [Example 45] ({Malonyl(2,2-Me2,histaminyl)}-[Ala(1H-tetrazol-5-yl)]KSFSDE[Nle][dF]T[αMeL]LDEKAAKDFIEWLIKEKITK-NH2; lactam 2-6, 14-18, 22-26, 27-31 (inferred); C-terminus assumed)
105	100	97.8	101	95.3	25.1		126	10000			CCCC[C@H](NC(=O)[C@H](CCC(=O)O)NC(=O)[C@@H]1CC(=O)NCCCC[C@H](NC(=O)[C@H](CC(=O)O)NC(=O)C(C)(C)NC(=O)[C@@H](N)Cc2c[nH]cn2)C(=O)N[C@@H](CO)C(=O)N[C@@H](Cc2ccccc2)C(=O)N[C@@H](CO)C(=O)N1)C(=O)N[C@H](Cc1ccccc1)C(=O)N[C@H](C(=O)N[C@@](C)(CC(C)C)C(=O)N[C@@H](CC(C)C)C(=O)N[C@@H](CC(=O)O)C(=O)N[C@H]1CCC(=O)NCCCC[C@@H](C(=O)N[C@@H](CC(=O)O)C(=O)N[C@@H](Cc2ccccc2)C(=O)N[C@H](C(=O)N[C@H]2CCC(=O)NCCCC[C@@H](C(=O)N[C@H]3CCC(=O)NCCCC[C@@H](C(N)=O)NC(=O)[C@H]([C@@H](C)O)NC(=O)[C@H]([C@@H](C)CC)NC(=O)[C@H](CCCCN)NC3=O)NC(=O)[C@H]([C@@H](C)CC)NC(=O)[C@H](CC(C)C)NC(=O)[C@H](Cc3c[nH]c4ccccc34)NC2=O)[C@@H](C)CC)NC(=O)[C@H](C)NC(=O)[C@H](C)NC(=O)[C@H](CCCCN)NC1=O)[C@@H](C)O [Example 46] (H-H[Aib]DKSFSDE[Nle][dF]T[αMeL]LDEKAAKDFIEWLIKEKITK-NH2; lactam 4-8, 16-20, 24-28, 29-33 (inferred); C-terminus assumed)
	9.2			1.7		1.3			5.7	1.2	CC[C@H](C)[C@H](NC(=O)[C@H](Cc1ccccc1)NC(=O)[C@H](CC(=O)O)NC(=O)[C@H](CCCNC(=N)N)NC(=O)[C@H](C)NC(=O)[C@H](C)NC(=O)[C@H](CC(C)C)NC(=O)[C@H](CC(N)=O)NC(=O)[C@H](CC(=O)O)NC(=O)[C@H](CC(C)C)NC(=O)[C@@H](NC(=O)[C@@H](NC(=O)[C@H](CC(N)=O)NC(=O)[C@H](CCSC)NC(=O)[C@H](CCC(=O)O)NC(=O)[C@H](CC(=O)O)NC(=O)[C@H](CO)NC(=O)[C@H](Cc1ccccc1)NC(=O)[C@H](CO)NC(=O)CNC(=O)[C@H](CC(=O)O)NC(=O)CNC(=O)[C@@H](N)Cc1c[nH]cn1)[C@@H](C)O)[C@@H](C)CC)C(=O)N[C@@H](CC(N)=O)C(=O)N[C@@H](Cc1c[nH]c2ccccc12)C(=O)N[C@@H](CC(C)C)C(=O)N[C@H](C(=O)N[C@@H](CCC(N)=O)C(=O)N[C@H](C(=O)N[C@@H](CCCCN)C(=O)N[C@H](C(=O)N[C@H](C(=O)N[C@@H](CC(=O)O)C(=O)O)[C@@H](C)O)[C@@H](C)CC)[C@@H](C)O)[C@@H](C)CC [Teduglutide, reference compound]
